Data reported in PubChem BioAssay AID248 (DTP/NCI, 2004).
Toxic doses and inconclusive results are not listed. Rule as the data show it: active = T/C of 150% or more; inactive = T/C below 125%.

System: L1210 leukemia ip in BDF1 mice, survival T/C
Assay: NCI In Vivo Anticancer Drug Screen. Data for tumor model L1210 Leukemia (intraperitoneal) in B6D2F1 (BDF1) mice
Conditions: endpoint: mean survival time, higher = longer survival
Outline: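 Tumor cells were implanted, animals were treated, and survival was followed. The result divides the treated measurement by the vehicle-control measurement.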

[1] = dose: 100.0 mg/kg/injection, schedule: Q04DX002 (ip), vehicle: Klucel (hydroxypropylcellulose) (HPC)
[2] = dose: 200.0 mg/kg/injection, schedule: Q04DX002 (ip), vehicle: Klucel (hydroxypropylcellulose) (HPC)
[3] = dose: 400.0 mg/kg/injection, schedule: Q04DX002 (ip), vehicle: Klucel (hydroxypropylcellulose) (HPC)
[4] = dose: 100.0 mg/kg/injection, schedule: Q04DX003 (ip), vehicle: saline with Tween-80

Measured: T/C

COc1ccc(Cc2ccc(O)cc2)cc1
inactive: dose: 100.0 mg/kg/injection, schedule: Q04DX003 (ip), vehicle: other 90 % of control | dose: 200.0 mg/kg/injection, schedule: Q04DX003 (ip), vehicle: other 93 % of control | dose: 400.0 mg/kg/injection, schedule: Q04DX003 (ip), vehicle: other 98 % of control

CCOC(=O)CNc1cccc(F)c1
inactive: [1] 101 % of control | [2] 108 % of control | [3] 105 % of control

NCC(=O)NC(CSSCC(N)C(=O)O)C(=O)O (stereo not drawn)
inactive: dose: 25.0 mg/kg/injection, schedule: Q04DX002 (ip), vehicle: saline 103 % of control | dose: 50.0 mg/kg/injection, schedule: Q04DX002 (ip), vehicle: saline 103 % of control | dose: 100.0 mg/kg/injection, schedule: Q04DX002 (ip), vehicle: saline 100 % of control

Oc1cccc2cccnc12.[Cu+].[O-]c1cccc2cccnc12
inactive: dose: 2.5 mg/kg/injection, schedule: Q01DX009 (ip), vehicle: saline 97 % of control | dose: 2.5 mg/kg/injection, schedule: Q04DX003 (ip), vehicle: alcohol 98 % of control | dose: 5.0 mg/kg/injection, schedule: Q01DX009 (ip), vehicle: saline 108 % of control | dose: 5.0 mg/kg/injection, schedule: Q04DX003 (ip), vehicle: alcohol 112 % of control | dose: 10.0 mg/kg/injection, schedule: Q01DX009 (ip), vehicle: saline 98 % of control | dose: 10.0 mg/kg/injection, schedule: Q04DX003 (ip), vehicle: alcohol 104 % of control

Cc1nc2cccc3ccc4c5ccccc5cc1c4c32
inactive: [4] 92 % of control | dose: 200.0 mg/kg/injection, schedule: Q04DX003 (ip), vehicle: saline with Tween-80 92 % of control | dose: 400.0 mg/kg/injection, schedule: Q04DX003 (ip), vehicle: saline with Tween-80 87 % of control

O=P(NNc1ccccc1)(NNc1ccccc1)c1ccccc1
inactive: dose: 100.0 mg/kg/injection, schedule: Q01DX009 (ip), vehicle: carboxymethylcellulose (CMC) 90 % of control | dose: 200.0 mg/kg/injection, schedule: Q01DX009 (ip), vehicle: carboxymethylcellulose (CMC) 88 % of control | dose: 400.0 mg/kg/injection, schedule: Q01DX009 (ip), vehicle: carboxymethylcellulose (CMC) 92 % of control

CC(=O)C(CCC#N)(CCC#N)CCC#N
inactive: dose: 75.0 mg/kg/injection, schedule: Q01DX009 (ip), vehicle: saline 93 % of control | dose: 150.0 mg/kg/injection, schedule: Q01DX009 (ip), vehicle: saline 95 % of control | dose: 200.0 mg/kg/injection, schedule: Q04DX003 (ip), vehicle: saline 102 % of control | dose: 300.0 mg/kg/injection, schedule: Q01DX009 (ip), vehicle: saline 93 % of control | dose: 400.0 mg/kg/injection, schedule: Q04DX003 (ip), vehicle: saline 87 % of control

COc1ccc2nc3c4ccccc4scc-3c2c1
inactive: [4] 92 % of control

O=C(Nc1ccccc1Cl)OC/C=C/c1ccccc1
inactive: dose: 100.0 mg/kg/injection, schedule: Q01DX009 (ip), vehicle: Klucel (hydroxypropylcellulose) (HPC) 103 % of control | [1] 88 % of control | dose: 200.0 mg/kg/injection, schedule: Q01DX009 (ip), vehicle: Klucel (hydroxypropylcellulose) (HPC) 96 % of control | [2] 88 % of control | dose: 400.0 mg/kg/injection, schedule: Q01DX009 (ip), vehicle: Klucel (hydroxypropylcellulose) (HPC) 108 % of control | [3] 100 % of control
